PubChem BioAssay (NCI)
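Where inhibition never reached the appropriate level, the endpoint shown equals the highest concentration tested. Otherwise, values were interpolated linearly from a five-concentration, 48-hour dose response in 96-well plates. TGI marks complete inhibition of growth.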

What was measured:
Assay in all cases: NCI tumour cell line growth inhibition, 48 h
786-0 renal = system: 786-0 renal
A498 renal = system: A498 renal
A549 NSCLC = system: A549 NSCLC
ACHN renal = system: ACHN renal
CAKI-1 renal = system: CAKI-1 renal
CCRF-CEM leukemia = system: CCRF-CEM leukemia
COLO 205 colon = system: COLO 205 colon
DLD-1 colon = system: DLD-1 colon
EKVX NSCLC = system: EKVX NSCLC
HCT-116 colon = system: HCT-116 colon
HL-60(TB) leukemia = system: HL-60(TB) leukemia
HOP-62 NSCLC = system: HOP-62 NSCLC
HOP-92 NSCLC = system: HOP-92 NSCLC
HT29 colon = system: HT29 colon
IGROV1 ovarian = system: IGROV1 ovarian
K-562 leukemia = system: K-562 leukemia
KM12 colon = system: KM12 colon
LXFL 529 NSCLC = system: LXFL 529 NSCLC
M14 melanoma = system: M14 melanoma
M19-MEL melanoma = system: M19-MEL melanoma
MALME-3M melanoma = system: MALME-3M melanoma
MOLT-4 leukemia = system: MOLT-4 leukemia
NCI-H226 lung = system: NCI-H226 lung
NCI-H23 lung = system: NCI-H23 lung
NCI-H460 lung = system: NCI-H460 lung
NCI-H522 lung = system: NCI-H522 lung
OVCAR-3 ovarian = system: OVCAR-3 ovarian
OVCAR-4 ovarian = system: OVCAR-4 ovarian
OVCAR-5 ovarian = system: OVCAR-5 ovarian
OVCAR-8 ovarian = system: OVCAR-8 ovarian
RPMI-8226 leukemia = system: RPMI-8226 leukemia
SF-268 CNS = system: SF-268 CNS
SF-295 CNS = system: SF-295 CNS
SK-MEL-2 melanoma = system: SK-MEL-2 melanoma
SK-MEL-28 melanoma = system: SK-MEL-28 melanoma
SK-OV-3 ovarian = system: SK-OV-3 ovarian
SN12C renal = system: SN12C renal
SNB-19 CNS = system: SNB-19 CNS
SNB-75 CNS = system: SNB-75 CNS
SNB-78 CNS = system: SNB-78 CNS
SR leukemia = system: SR leukemia
SW-620 colon = system: SW-620 colon
TK-10 renal = system: TK-10 renal
U251 CNS = system: U251 CNS
UACC-257 melanoma = system: UACC-257 melanoma
UACC-62 melanoma = system: UACC-62 melanoma
UO-31 renal = system: UO-31 renal
XF 498 CNS = system: XF 498 CNS
HCC-2998 colon = system: HCC-2998 colon
KM20L2 colon = system: KM20L2 colon
LOX IMVI melanoma = system: LOX IMVI melanoma
RXF 393 renal = system: RXF 393 renal
SF-539 CNS = system: SF-539 CNS
DMS 114 small cell lung = system: DMS 114 small cell lung
DMS 273 small cell lung = system: DMS 273 small cell lung
HCT-15 colon = system: HCT-15 colon
HOP-18 NSCLC = system: HOP-18 NSCLC

O=C1OCCC1(Cc1ccc(Cl)cc1)Cc1ccc(Cl)cc1
TGI (786-0 renal): > 100 µM | TGI (A498 renal): > 100 µM | TGI (A549 NSCLC): > 100 µM | TGI (ACHN renal): > 100 µM | TGI (CAKI-1 renal): > 100 µM | TGI (CCRF-CEM leukemia): > 100 µM | TGI (COLO 205 colon): > 100 µM | TGI (DLD-1 colon): > 100 µM | TGI (EKVX NSCLC): > 100 µM | TGI (HCT-116 colon): > 100 µM | TGI (HL-60(TB) leukemia): > 100 µM | TGI (HOP-62 NSCLC): 89.2 µM | TGI (HOP-92 NSCLC): 96.3 µM | TGI (HT29 colon): > 100 µM | TGI (IGROV1 ovarian): > 100 µM | TGI (K-562 leukemia): > 100 µM | TGI (KM12 colon): > 100 µM | TGI (LXFL 529 NSCLC): > 100 µM | TGI (M14 melanoma): > 100 µM | TGI (M19-MEL melanoma): > 100 µM | TGI (MALME-3M melanoma): > 100 µM | TGI (MOLT-4 leukemia): > 100 µM | TGI (NCI-H226 lung): > 100 µM | TGI (NCI-H23 lung): > 100 µM | TGI (NCI-H460 lung): > 100 µM | TGI (NCI-H522 lung): > 100 µM | TGI (OVCAR-3 ovarian): > 100 µM | TGI (OVCAR-4 ovarian): > 100 µM | TGI (OVCAR-5 ovarian): > 100 µM | TGI (OVCAR-8 ovarian): > 100 µM | TGI (RPMI-8226 leukemia): > 100 µM | TGI (SF-268 CNS): > 100 µM | TGI (SF-295 CNS): > 100 µM | TGI (SK-MEL-2 melanoma): > 100 µM | TGI (SK-MEL-28 melanoma): > 100 µM | TGI (SK-OV-3 ovarian): > 100 µM | TGI (SN12C renal): > 100 µM | TGI (SNB-19 CNS): > 100 µM | TGI (SNB-75 CNS): 56.5 µM | TGI (SNB-78 CNS): > 100 µM | TGI (SR leukemia): > 100 µM | TGI (SW-620 colon): > 100 µM | TGI (TK-10 renal): > 100 µM | TGI (U251 CNS): > 100 µM | TGI (UACC-257 melanoma): > 100 µM | TGI (UACC-62 melanoma): > 100 µM | TGI (UO-31 renal): > 100 µM | TGI (XF 498 CNS): 43.3 µM

O=S(O)CCCCCSSSCCCCCS(=O)O
TGI (A498 renal): > 100 µM | TGI (ACHN renal): > 100 µM | TGI (CCRF-CEM leukemia): 37.7 µM | TGI (DLD-1 colon): > 100 µM | TGI (EKVX NSCLC): > 100 µM | TGI (HCC-2998 colon): > 100 µM | TGI (HCT-116 colon): 68.1 µM | TGI (HL-60(TB) leukemia): 65 µM | TGI (HOP-62 NSCLC): > 100 µM | TGI (HT29 colon): > 100 µM | TGI (K-562 leukemia): > 100 µM | TGI (KM12 colon): > 100 µM | TGI (KM20L2 colon): > 100 µM | TGI (LOX IMVI melanoma): 62.4 µM | TGI (LXFL 529 NSCLC): 27.9 µM | TGI (M14 melanoma): > 100 µM | TGI (M19-MEL melanoma): > 100 µM | TGI (MALME-3M melanoma): 94 µM | TGI (MOLT-4 leukemia): 60.8 µM | TGI (NCI-H23 lung): > 100 µM | TGI (NCI-H460 lung): > 100 µM | TGI (NCI-H522 lung): 85.1 µM | TGI (OVCAR-3 ovarian): 78.9 µM | TGI (OVCAR-4 ovarian): > 100 µM | TGI (OVCAR-5 ovarian): > 100 µM | TGI (RXF 393 renal): 41.8 µM | TGI (SF-268 CNS): > 100 µM | TGI (SF-539 CNS): > 100 µM | TGI (SK-MEL-2 melanoma): 67.8 µM | TGI (SK-MEL-28 melanoma): > 100 µM | TGI (SK-OV-3 ovarian): > 100 µM | TGI (SN12C renal): > 100 µM | TGI (SNB-19 CNS): > 100 µM | TGI (SNB-75 CNS): 94.8 µM | TGI (SNB-78 CNS): > 100 µM | TGI (SR leukemia): 30.3 µM | TGI (TK-10 renal): 93.8 µM | TGI (U251 CNS): > 100 µM | TGI (UACC-257 melanoma): > 100 µM | TGI (UACC-62 melanoma): 55.3 µM | TGI (UO-31 renal): > 100 µM | TGI (XF 498 CNS): 36.3 µM

COC1/C(=C\c2ccccc2I)c2ccccc2N1C(C)=O (configuration not stated)
TGI (786-0 renal): 33.3 µM | TGI (A498 renal): 30.1 µM | TGI (A549 NSCLC): 35.8 µM | TGI (ACHN renal): > 100 µM | TGI (CAKI-1 renal): 50 µM | TGI (CCRF-CEM leukemia): 59.1 µM | TGI (COLO 205 colon): 31.5 µM | TGI (DLD-1 colon): 43.4 µM | TGI (DMS 114 small cell lung): 38.7 µM | TGI (DMS 273 small cell lung): 27.1 µM | TGI (EKVX NSCLC): 39.6 µM | TGI (HCC-2998 colon): 33.9 µM | TGI (HCT-116 colon): 26.8 µM | TGI (HCT-15 colon): 37.4 µM | TGI (HL-60(TB) leukemia): 16.1 µM | TGI (HOP-18 NSCLC): 38.1 µM | TGI (HOP-62 NSCLC): 32.7 µM | TGI (HOP-92 NSCLC): 8.99 µM | TGI (HT29 colon): 37.1 µM | TGI (IGROV1 ovarian): 39.6 µM | TGI (K-562 leukemia): 53.3 µM | TGI (KM12 colon): 29 µM | TGI (KM20L2 colon): 30 µM | TGI (LXFL 529 NSCLC): 87.4 µM | TGI (M19-MEL melanoma): 42.4 µM | TGI (MOLT-4 leukemia): 35.8 µM | TGI (NCI-H23 lung): 36.5 µM | TGI (NCI-H460 lung): 33.5 µM | TGI (OVCAR-3 ovarian): 31.2 µM | TGI (OVCAR-4 ovarian): 32.1 µM | TGI (OVCAR-8 ovarian): > 100 µM | TGI (RPMI-8226 leukemia): 39.1 µM | TGI (RXF 393 renal): 22.3 µM | TGI (SF-295 CNS): 29.2 µM | TGI (SF-539 CNS): 31.2 µM | TGI (SK-MEL-2 melanoma): 32.5 µM | TGI (SK-MEL-28 melanoma): 38.3 µM | TGI (SN12C renal): 28.8 µM | TGI (SNB-19 CNS): 60.4 µM | TGI (SNB-75 CNS): 55 µM | TGI (SNB-78 CNS): 82.5 µM | TGI (SR leukemia): 42.9 µM | TGI (SW-620 colon): 39.2 µM | TGI (U251 CNS): 42.6 µM | TGI (UACC-257 melanoma): 44.1 µM | TGI (UACC-62 melanoma): 26.7 µM | TGI (UO-31 renal): 9.91 µM
